Data published in the NIST ThermoML archive (doi:10.1021/je700261b).
± gives the expanded uncertainty stated by the source.

Settings: Liquid

In the case of CCCCO [butan-1-ol], the mass density (342.86 K, 1026 kPa) is reported as 770.92 ± 0.47 kg/m3, the mass density (342.86 K, 2007 kPa) is reported as 771.87 ± 0.48 kg/m3 and the mass density (342.86 K, 3003 kPa) is reported as 772.85 ± 0.49 kg/m3. For the same molecule, the mass density (342.86 K, 4051 kPa) was 773.84 ± 0.49 kg/m3, the mass density (342.86 K, 5008 kPa) was 774.72 ± 0.5 kg/m3 and the mass density (342.86 K, 6023 kPa) was 775.59 ± 0.51 kg/m3. For the same molecule, the mass density (342.86 K, 7010 kPa) was 776.55 ± 0.52 kg/m3, the mass density (342.86 K, 8000 kPa) was 777.42 ± 0.53 kg/m3 and the mass density (342.86 K, 9001 kPa) was 778.28 ± 0.54 kg/m3. It also gave a mass density (342.86 K, 10005 kPa) of 779.2 ± 0.55 kg/m3, a mass density (342.86 K, 11006 kPa) of 780.06 ± 0.56 kg/m3 and a mass density (342.86 K, 12010 kPa) of 780.9 ± 0.57 kg/m3. The mass density (342.86 K, 13033 kPa) was 781.77 ± 0.58 kg/m3, the mass density (342.86 K, 14017 kPa) was 782.62 ± 0.59 kg/m3 and the mass density (342.86 K, 15001 kPa) was 783.45 ± 0.6 kg/m3. The mass density (342.86 K, 16009 kPa) was 784.29 ± 0.61 kg/m3, the mass density (342.86 K, 17016 kPa) was 785.14 ± 0.62 kg/m3 and the mass density (342.86 K, 17991 kPa) was 785.93 ± 0.63 kg/m3. It also gave a mass density (342.86 K, 19023 kPa) of 786.79 ± 0.64 kg/m3, a mass density (342.86 K, 19999 kPa) of 787.57 ± 0.65 kg/m3 and a mass density (342.86 K, 21000 kPa) of 788.37 ± 0.66 kg/m3. The mass density (342.86 K, 22003 kPa) was 789.15 ± 0.67 kg/m3, the mass density (342.86 K, 22989 kPa) was 789.91 ± 0.68 kg/m3 and the mass density (342.86 K, 24004 kPa) was 790.69 ± 0.69 kg/m3. For the same molecule, the mass density (342.86 K, 24621 kPa) was 791.2 ± 0.7 kg/m3, the mass density (352.79 K, 1020 kPa) was 762.66 ± 0.47 kg/m3 and the mass density (352.79 K, 2014 kPa) was 763.68 ± 0.48 kg/m3. The mass density (352.79 K, 3007 kPa) was 764.68 ± 0.49 kg/m3, the mass density (352.79 K, 3998 kPa) was 765.67 ± 0.5 kg/m3 and the mass density (352.79 K, 4998 kPa) was 766.69 ± 0.51 kg/m3. The mass density (352.79 K, 5997 kPa) was 767.68 ± 0.52 kg/m3, the mass density (352.79 K, 7006 kPa) was 768.64 ± 0.53 kg/m3 and the mass density (352.79 K, 8005 kPa) was 769.61 ± 0.54 kg/m3. The mass density (352.79 K, 9007 kPa) was 770.53 ± 0.55 kg/m3, the mass density (352.79 K, 9997 kPa) was 771.44 ± 0.56 kg/m3 and the mass density (352.79 K, 11008 kPa) was 772.38 ± 0.57 kg/m3. It also gave a mass density (352.79 K, 12000 kPa) of 773.26 ± 0.58 kg/m3, a mass density (352.79 K, 13043 kPa) of 774.22 ± 0.59 kg/m3 and a mass density (352.79 K, 14002 kPa) of 775.11 ± 0.6 kg/m3. It also gave a mass density (352.79 K, 15000 kPa) of 775.98 ± 0.61 kg/m3, a mass density (352.79 K, 16000 kPa) of 776.85 ± 0.62 kg/m3 and a mass density (352.79 K, 16992 kPa) of 777.72 ± 0.63 kg/m3. For the same molecule, the mass density (352.79 K, 17988 kPa) was 778.56 ± 0.64 kg/m3, the mass density (352.79 K, 18994 kPa) was 779.41 ± 0.65 kg/m3 and the mass density (352.79 K, 20012 kPa) was 780.22 ± 0.66 kg/m3. The mass density (352.79 K, 21003 kPa) was 781.04 ± 0.67 kg/m3, the mass density (352.79 K, 22010 kPa) was 781.87 ± 0.69 kg/m3 and the mass density (352.79 K, 22971 kPa) was 782.68 ± 0.7 kg/m3. For the same molecule, the mass density (352.79 K, 24021 kPa) was 783.49 ± 0.71 kg/m3, the mass density (352.79 K, 24573 kPa) was 783.95 ± 0.71 kg/m3 and the mass density (362.67 K, 1043 kPa) was 753.5 ± 0.48 kg/m3. For the same molecule, the mass density (362.67 K, 2116 kPa) was 754.77 ± 0.49 kg/m3, the mass density (362.67 K, 3026 kPa) was 755.74 ± 0.5 kg/m3 and the mass density (362.67 K, 4013 kPa) was 756.82 ± 0.5 kg/m3. The mass density (362.67 K, 5024 kPa) was 757.87 ± 0.51 kg/m3, the mass density (362.67 K, 6047 kPa) was 758.93 ± 0.52 kg/m3 and the mass density (362.67 K, 7014 kPa) was 759.93 ± 0.53 kg/m3. The mass density (362.67 K, 8012 kPa) was 760.98 ± 0.54 kg/m3, the mass density (362.67 K, 9025 kPa) was 762.03 ± 0.56 kg/m3 and the mass density (362.67 K, 10015 kPa) was 762.94 ± 0.57 kg/m3. The mass density (362.67 K, 11002 kPa) was 763.92 ± 0.58 kg/m3, the mass density (362.67 K, 12002 kPa) was 764.89 ± 0.59 kg/m3 and the mass density (362.67 K, 13011 kPa) was 765.86 ± 0.6 kg/m3. The mass density (362.67 K, 14011 kPa) was 766.84 ± 0.61 kg/m3, the mass density (362.67 K, 15014 kPa) was 767.7 ± 0.62 kg/m3 and the mass density (362.67 K, 16006 kPa) was 768.67 ± 0.63 kg/m3. The mass density (362.67 K, 17009 kPa) was 769.58 ± 0.64 kg/m3, the mass density (362.67 K, 18008 kPa) was 770.48 ± 0.65 kg/m3 and the mass density (362.67 K, 18993 kPa) was 771.37 ± 0.67 kg/m3. For the same molecule, the mass density (362.67 K, 19990 kPa) was 772.21 ± 0.68 kg/m3, the mass density (362.67 K, 21007 kPa) was 773.1 ± 0.69 kg/m3 and the mass density (362.67 K, 21997 kPa) was 773.96 ± 0.7 kg/m3. It also gave a mass density (362.67 K, 23014 kPa) of 774.89 ± 0.71 kg/m3, a mass density (362.67 K, 24000 kPa) of 775.58 ± 0.72 kg/m3 and a mass density (362.67 K, 24563 kPa) of 776.12 ± 0.73 kg/m3.
